Measurements reported in article PMC8066833 (Pharmaceuticals, 2021).

Tests used:
[1] = delivered intraperitoneally to treat a bacterial infection; cited from earlier work
Description: Peptoid 1 [H-(NLys-Nspe-Nspe)4-NH2], designated here as MXB-1, is a 12-mer with the trimer sequence motif NLys-Nspe-Nspe repeated four times (structures of the monomers are shown in Figure 1A). It is a helical peptoid with broad-spectrum activity against a variety of pathogens, including viruses as shown here; it is also active against fungi and bacterial biofilms.

[2] = test system: Pseudomonas aeruginosa biofilms; settings: cited from earlier work
[3] = test system: HSV-1; assay: HSV-1 inactivation: virus pre-incubated with peptoid, infection of OKF6/TERT-1 cells, HSV-1 DNA by QPCR; format: cell-based, Herpes Simplex Virus-1; settings: for Activity against HSV-1 (screening, HSV-1 DNA by QPCR relative to β-actin): virus incubated with peptoid at 20 µg/mL for 2 h at 37 °C, then infection of OKF6/TERT-1 cells for 24 h
[4] = test system: EpiOral cells; format: cell-based, human; settings: 3D primary oral epithelial cultures (EpiOral), apical application for 3 h, any concentration up to 256 µg/mL, n = 3 wells per concentration
Experimental: To provide further evidence to support the development of these agents as potential therapeutics, we assayed cytotoxicity against cultured cells. To provide the optimal in vitro toxicity model, we used 3-dimensional primary cultures of oral epithelial cells (EpiOral, MatTek Life Sciences, Ashland, MA, USA), grown at an air-liquid interface. The cultures were tested in the presence of increasing concentrations of MXB-4, MXB-5 and MXB-9 for 3 h, applied to the apical surface. Viability was monitored using the MTT assay. […] Incubation with 50% ethanol led to 0% viability (not shown).
Figure 6 In vitro toxicity of peptoids. Peptoids were incubated on the apical surface of cultured EpiOral cells (n = 3 wells per concentration) for 3 h. Cell viability was quantified by MTT assay and are shown as mean percent survival +/− SD. Results shown are representative of two independent replicate experiments.
Normal human bronchial epithelial cells, obtained from MatTek (EpiAirway) were grown at an air-liquid interface at 37 °C. […] Cell viability was quantified using the CyQUANT MTT Cell Viability Assay (ThermoFisher, Waltham, MA, USA), following the manufacturer’s instructions Absorbance was read at 540 nm and percent survival was calculated relative to untreated cultures. […]

[5] = test system: HSV-1; assay: Electron microscopy (negative staining and cryo-EM) of peptoid-treated HSV-1; design: species or system Herpes Simplex Virus-1; settings: HSV-1 treated 2 h at 37 °C; untreated controls 21% unenveloped capsids
Experimental: Figure 3 Transmission electron microscope imaging of peptoid-treated HSV-1 vs. controls and comparative analysis of results. Virus was treated for 2 h at 37 °C followed by preparation for EM imaging as described in Materials and Methods. (A) Negative stained EM. (B) Cryo-EM. Visible in the control samples are the viral envelope and intact capsid (both panels). In the samples treated with the peptoids we observe both disrupted envelopes (top panels) and naked capsids (bottom panels).
HSV-1 (1 × 10^8 pfu/mL) was incubated with peptoids or control medium for 2 h. at 37 °C. After incubation, the virus was fixed by addition of 2 volumes 4% glutaraldehyde/PBS, and fixed at 4 °C for 24 h. Virus was applied to grids (ultrathin carbon with lacey support film, Ted Pella, Inc.) for 1 min, followed by staining in 1% phosphotungstic acid for 1 min. Excess liquid was blotted and grids were allowed to air dry. Images were collected using a Thermo Scientific™ Talos™ F200X at 200 kV accelerating voltage with 50 μm objective aperture inserted to enhance contrast. Images were captured using a 4k × 4k CMOS camera (Thermo Scientific, Waltham, MA, USA, Ceta 16M™).
After incubation of HSV-1 virus with peptoids for 2 h. at 37 °C, samples were vitrified using Leica EM-GP2® plunger (Leica Microsystems) as previously described on carbon holey film (R2 × 1 Quantifoil®; Micro Tools GmbH, Jena, Germany) grids. […]

[6] = Small Angle X-ray Scattering, self-assembly in aqueous PBS buffer; format: physicochemical; settings: unpublished data, manuscript in preparation
Description: Comparing the structures of the ten peptoids on our new library with regard to antiviral activity, halogenation seems to be beneficial as every active compound (except MXB-5) includes at least two Nspe(p-Br) submonomers. […] This difference in activity potentially can be explained by differences in net molecular hydrophobicity upon halogen substitution as previously reported by Molchanova et al.. In this study they found an increasing antimicrobial activity correlating with increasing hydrophobicity, until a threshold was reached where the activity dropped. […] Further studies are needed to make definitive conclusions about these effects. We believe that a certain type and degree and stability of peptoid self-assemblies in aqueous media can be an important determinant of both activity, and selectivity. If assemblies remain intact near zwitterionic mammalian cells, but disassemble near anionic pathogenic membranes, they can be selective towards affecting pathogens while causing little to no harm to the host.

[7] = test system: Pseudomonas aeruginosa; settings: cited from earlier work
Description: (§1) This effort led to the development of MXB-5 [H-Ntridec-NLys-Nspe-Nspe-NLys-NH2; see Figure 1 for structure), a peptoid with a 13-carbon N-terminal alkyl modification, that shares some structural similarities with MXB-1 [31]. […] In one in vivo experiment which has been presented orally online, mice were infected intratracheally with bioluminescent Pseudomonas aeruginosa, and were ...

[8] = test system: mammalian cells; settings: cited from earlier work
Description: as §1

[9] = test system: HSV-1-GFP; assay: Fluorescence imaging of HSV-1-GFP infection; format: cell-based, Herpes Simplex Virus-1; settings: virus treated at 20 µg/mL for 2 h; control-treated virus showed strong fluorescence

H-(NLys-Nspe-Nspe)4-NH2 [MXB-1]
Tolerability when delivered intraperitoneally [1]: reasonably well tolerated

H-Ntridec-NLys-Nspe-Nspe-NLys-NH2 [MXB-5]
Activity against Pseudomonas aeruginosa biofilms [2]: highly active
Activity against HSV-1, dose-dependence ([3]; 20 µg/mL for 2 h (5 and 20 µg/mL tested), Figure 2B): strong activity
Incubation time at which inactivation of HSV-1 is seen (time course) ([3]; time course, Figure 2C): ≤ 30 min
Activity against HSV-1 (screening, HSV-1 DNA by QPCR relative to β-actin) [3]: strong activity
Cytotoxicity (viability by MTT assay) [4]: no observable cytotoxicity
Cryo-EM quantification of whole virus, disrupted envelopes and naked capsids [5]: large increase in both unenveloped capsids
Self-assembled structure in solution (SAXS) [6]: stable core-shell ellipsoidal micellar structures
Tolerability in the lungs of the mice ([7]; intratracheal infection model): well tolerated
Bacterial loads compared to untreated animals ([7]; mice, intratracheal infection with bioluminescent Pseudomonas aeruginosa): significant reduction in bacterial loads
Cytotoxicity to mammalian cells relative to MXB-1 [8]: significantly less cytotoxic
GFP fluorescence in cells at 24 h post-infection (viral replication) [9]: very weak fluorescence

LL-37: human cathelicidin AMP, natural human host defense peptide (LLGDFFRKSKEKIGKEFKRIVQRIKDFLRNLVPRTES; Antibacterial peptide LL-37; UniProt P49913 134-170, looked up) [reference compound]
Activity against HSV-1 (screening, HSV-1 DNA by QPCR relative to β-actin) [3]: direct inactivation of HSV-1
